Assay results from patent US20240116985A1, “STAPLED PEPTIDES AND METHODS THEREOF” (priority 2020, published 2024).
Converted amounts (≈) assume the structure as drawn. Where two headings read alike, the source gives them in different places.

Tests used:
[1] = Solubility in PBS; assay type: physicochemical
Procedure, shortened: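 HPLC quantitation of peptide remaining in the PBS supernatant after ultracentrifugation, referenced to a 50 μM solution in DMSO.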

[2] = target: T1, full-length beta-Catenin (Uniprot ID P35222) (Homo sapiens, UniProt P35222); assay: Fluorescence polarization IC50 (beta-catenin / 5FAM-TCF4 10-53 competition); assay type: binding
T1 construct: 10 nM full-length beta-Catenin (Uniprot ID P35222)
T1 sequence (P35222 1-781): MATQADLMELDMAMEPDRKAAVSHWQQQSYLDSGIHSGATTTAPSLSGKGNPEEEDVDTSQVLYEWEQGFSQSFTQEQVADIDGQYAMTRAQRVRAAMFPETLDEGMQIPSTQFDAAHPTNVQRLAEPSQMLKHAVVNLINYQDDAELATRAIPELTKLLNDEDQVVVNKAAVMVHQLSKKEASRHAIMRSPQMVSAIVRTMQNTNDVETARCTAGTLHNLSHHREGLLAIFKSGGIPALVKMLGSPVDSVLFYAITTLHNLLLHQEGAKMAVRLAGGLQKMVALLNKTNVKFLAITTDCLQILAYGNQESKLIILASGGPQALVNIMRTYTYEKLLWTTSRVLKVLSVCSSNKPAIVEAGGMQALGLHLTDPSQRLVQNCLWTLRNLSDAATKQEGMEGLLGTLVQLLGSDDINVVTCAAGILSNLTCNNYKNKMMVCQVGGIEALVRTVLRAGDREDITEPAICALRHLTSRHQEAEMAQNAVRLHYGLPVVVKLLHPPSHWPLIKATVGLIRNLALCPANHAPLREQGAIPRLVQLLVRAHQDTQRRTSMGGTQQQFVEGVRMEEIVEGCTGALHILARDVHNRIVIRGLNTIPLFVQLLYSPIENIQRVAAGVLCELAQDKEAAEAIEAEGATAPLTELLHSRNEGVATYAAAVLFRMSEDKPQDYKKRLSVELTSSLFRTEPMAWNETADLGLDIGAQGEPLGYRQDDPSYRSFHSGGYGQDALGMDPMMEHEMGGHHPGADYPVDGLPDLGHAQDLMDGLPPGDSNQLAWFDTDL

[3] = CHI Log D procedure; assay type: physicochemical; conditions: for CHI Log D: pH 7.4; for chromatographic logD: pH 7.4, CHI Log D
[4] = fluorescence polarization, read-out: beta-Catenin FP IC50

| SMILES | Solubility [1] | IC50 [2, 4] | IC50 ([2]; read-out: FP EC50) | CHI Log D [3] | Solubility ([1]; Solubility (uM)) | chromatographic logD [3] | solubility at 15 min ([1]; Solubility (uM)) |
| --- | --- | --- | --- | --- | --- | --- | --- |
| CC(=O)N1CCC[C@]12CC=CCCCC1(CCCC=CCCCCCC[C@@](C)(C(=O)N[C@@H](Cc3ccccc3)C(=O)N[C@@H](Cc3csc4ccccc34)C(=O)N[C@@H](CCC(N)=O)C(N)=O)NC(=O)[C@H](CC(N)=O)NC(=O)[C@H](Cc3ccccc3)NC(=O)[C@H](C)NC(=O)[C@H](C)NC(=O)[C@H](CCC(=O)O)NC(=O)[C@H](CC(=O)O)NC1=O)NC(=O)[C@H](C)NC(=O)[C@H](CC(=O)O)NC2=O (stereo partly drawn) [I-425, Ac-PL3-Asp-Ala-B5-Asp-Glu-Ala-Ala-Phe-Asn-S8-Phe-BztA-Gln-NH2] | 45 µM (≈ 82.2 µg/mL) | 0.05 µM | 0.05 µM | 2.01 | – | – | – |
| CC(=O)N1CCC[C@]12CC=CCCCC1(CCCC=CCCCCCC[C@@](C)(C(=O)N[C@@H](Cc3ccsc3)C(=O)N[C@@H](Cc3csc4ccccc34)C(=O)N[C@@H](CCC(N)=O)C(N)=O)NC(=O)[C@H](CCC(N)=O)NC(=O)[C@H](Cc3ccccc3)NC(=O)[C@H](C)NC(=O)[C@H](C)NC(=O)[C@H](CCC(=O)O)NC(=O)[C@H](CC(=O)O)NC1=O)NC(=O)[C@H](C)NC(=O)[C@H](CC(=O)O)NC2=O (stereo partly drawn) [I-426, Ac-PL3-Asp-Ala-B5-Asp-Glu-Ala-Ala-Phe-Gln-S8-3Thi-BztA-Gln-NH2] | 33 µM (≈ 61 µg/mL) | 0.109 µM | 0.109 µM | 1.959 | – | – | – |
| CC(=O)N1CCC[C@]12CC=CCCCC1(CCCC=CCCCCCC[C@@](C)(C(=O)N[C@@H](Cc3ccsc3)C(=O)N[C@@H](Cc3csc4ccccc34)C(=O)N[C@@H](CCC(N)=O)C(N)=O)NC(=O)[C@H](CCC(N)=O)NC(=O)[C@H](Cc3ccccc3)NC(=O)[C@H](C)NC(=O)[C@H](C)NC(=O)[C@H](CCC(=O)O)NC(=O)[C@H](CC(=O)O)NC1=O)NC(=O)[C@H](C)NC(=O)[C@H](CC(=O)O)NC2=O (stereo partly drawn) [I-427, Ac-PL3-Asp-Ala-B5-Asp-Glu-Ala-Ala-Phe-Gln-S8-3Thi-BztA-Gln-NH2] | 50 µM (≈ 92.4 µg/mL) | 0.0385 µM | 0.0385 µM | 1.985 | – | – | – |
| CC(=O)N1CCC[C@]12CC=CCCCC1(CCCC=CCCCCCC[C@@](C)(C(=O)N[C@@H](Cc3cccs3)C(=O)N[C@@H](Cc3csc4ccccc34)C(=O)N[C@@H](CCC(N)=O)C(N)=O)NC(=O)[C@H](CCC(N)=O)NC(=O)[C@H](Cc3ccccc3)NC(=O)[C@H](C)NC(=O)[C@H](C)NC(=O)[C@H](CCC(=O)O)NC(=O)[C@H](CC(=O)O)NC1=O)NC(=O)[C@H](C)NC(=O)[C@H](CC(=O)O)NC2=O (stereo partly drawn) [I-428, Ac-PL3-Asp-Ala-B5-Asp-Glu-Ala-Ala-Phe-Gln-S8-2Thi-BztA-Gln-NH2] | – | 0.06 µM | – | – | 14 µM (≈ 25.9 µg/mL) | 1.99 | – |
| CC(=O)N1CCC[C@]12CC=CCCCC1(CCCC=CCCCCCC[C@@](C)(C(=O)N[C@@H](Cc3cccc(F)c3)C(=O)N[C@@H](Cc3csc4ccccc34)C(=O)N[C@@H](CCC(N)=O)C(N)=O)NC(=O)[C@H](CCC(N)=O)NC(=O)[C@H](Cc3ccsc3)NC(=O)[C@H](C)NC(=O)[C@H](C)NC(=O)[C@H](CCC(=O)O)NC(=O)[C@H](CC(=O)O)NC1=O)NC(=O)[C@H](C)NC(=O)[C@H](CC(=O)O)NC2=O (stereo partly drawn) [I-429, Ac-PL3-Asp-Ala-B5-Asp-Glu-Ala-Ala-3Thi-Gln-S8-3FF-BztA-Gln-NH2] | 50 µM (≈ 93.3 µg/mL) | 0.146 µM | – | – | – | 2.07 | – |
| CC(=O)N1CCC[C@]12CC=CCCCC1(CCCC=CCCCCCC[C@@](C)(C(=O)N[C@@H](Cc3cccc(F)c3)C(=O)N[C@@H](Cc3csc4ccccc34)C(N)=O)NC(=O)[C@H](CCC(N)=O)NC(=O)[C@H](Cc3ccsc3)NC(=O)[C@H](C)NC(=O)[C@H](C)NC(=O)[C@H](CCC(=O)O)NC(=O)[C@H](CC(=O)O)NC1=O)NC(=O)[C@H](C)NC(=O)[C@H](CC(=O)O)NC2=O (stereo partly drawn) [I-431, Ac-PL3-Asp-Ala-B5-Asp-Glu-Ala-Ala-3Thi-Gln-S8-3FF-BztA-NH2] | – | 1.32 µM | – | – | 33 µM (≈ 57.3 µg/mL) | 2.23 | – |
| CC(=O)N1CCC[C@]12CC=CCCCC1(CCCC=CCCCCCC[C@@](C)(C(=O)N[C@@H](Cc3ccccc3)C(=O)N[C@@H](Cc3csc4ccccc34)C(N)=O)NC(=O)[C@H](CC(N)=O)NC(=O)[C@H](Cc3ccccc3)NC(=O)[C@H](C)NC(=O)[C@H](C)NC(=O)[C@H](CCC(=O)O)NC(=O)[C@H](CC(=O)O)NC1=O)NC(=O)[C@H](C)NC(=O)[C@H](CC(=O)O)NC2=O (stereo partly drawn) [I-432, Ac-PL3-Asp-Ala-B5-Asp-Glu-Ala-Ala-Phe-Asn-S8-Phe-BztA-NH2] | – | 0.145 µM | – | – | 23 µM (≈ 39.1 µg/mL) | 2.23 | – |
| COC[C@@H]1NC(=O)[C@H](Cc2ccccc2)NC(=O)[C@H](C)NC(=O)[C@H](C)NC(=O)[C@H](CCC(=O)O)NC(=O)[C@H](CC(=O)O)NC(=O)C2(CCCC=CCCCCCC[C@@](C)(C(=O)N[C@@H](Cc3ccccc3)C(=O)N[C@@H](Cc3csc4ccccc34)C(=O)N[C@@H](CCC(N)=O)C(N)=O)NC1=O)CCCC=CC[C@]1(CCCN1C(C)=O)C(=O)N[C@@H](CC(=O)O)C(=O)N[C@@H](C)C(=O)N2 (stereo partly drawn) [I-433, Ac-PL3-Asp-Ala-B5-Asp-Glu-Ala-Ala-Phe-S(OMe)-S8-Phe-BztA-Gln-NH2] | – | 0.136 µM | – | – | 39 µM (≈ 70.7 µg/mL) | 2.08 | – |
| CC(=O)N1CCC[C@]12CC=CCCCC1(CCCC=CCCCCCC[C@@](C)(C(=O)N[C@@H](Cc3ccccc3F)C(=O)N[C@@H](Cc3csc4ccccc34)C(=O)N[C@@H](CCC(N)=O)C(N)=O)NC(=O)[C@H](CC(N)=O)NC(=O)[C@H](Cc3ccccc3)NC(=O)[C@H](C)NC(=O)[C@H](C)NC(=O)[C@H](CCC(=O)O)NC(=O)[C@H](CC(=O)O)NC1=O)NC(=O)[C@H](C)NC(=O)[C@H](CC(=O)O)NC2=O (stereo partly drawn) [I-434, Ac-PL3-Asp-Ala-B5-Asp-Glu-Ala-Ala-Phe-Asn-S8-2FF-BztA-Gln-NH2] | – | 0.0675 µM | – | – | 20 µM (≈ 36.9 µg/mL) | 2.05 | – |
| CC(=O)N1CCC[C@]12CC=CCCCC1(CCCC=CCCCCCC[C@@](C)(C(=O)N[C@@H](Cc3ccccc3Cl)C(=O)N[C@@H](Cc3csc4ccccc34)C(=O)N[C@@H](CCC(N)=O)C(N)=O)NC(=O)[C@H](CC(N)=O)NC(=O)[C@H](Cc3ccccc3)NC(=O)[C@H](C)NC(=O)[C@H](C)NC(=O)[C@H](CCC(=O)O)NC(=O)[C@H](CC(=O)O)NC1=O)NC(=O)[C@H](C)NC(=O)[C@H](CC(=O)O)NC2=O (stereo partly drawn) [I-435, Ac-PL3-Asp-Ala-B5-Asp-Glu-Ala-Ala-Phe-Asn-S8-2C1F-BztA-Gln-NH2] | 50 µM (≈ 93.1 µg/mL) | 0.07 µM | – | – | – | 2.13 | – |
| CC(=O)N1CCC[C@]12CC=CCCCC1(CCCC=CCCCCCC[C@@](C)(C(=O)N[C@@H](Cc3ccccc3Br)C(=O)N[C@@H](Cc3csc4ccccc34)C(=O)N[C@@H](CCC(N)=O)C(N)=O)NC(=O)[C@H](CC(N)=O)NC(=O)[C@H](Cc3ccccc3)NC(=O)[C@H](C)NC(=O)[C@H](C)NC(=O)[C@H](CCC(=O)O)NC(=O)[C@H](CC(=O)O)NC1=O)NC(=O)[C@H](C)NC(=O)[C@H](CC(=O)O)NC2=O (stereo partly drawn) [I-436, Ac-PL3-Asp-Ala-B5-Asp-Glu-Ala-Ala-Phe-Asn-S8-2BrF-BztA-Gln-NH2] | 50 µM (≈ 95.3 µg/mL) | 0.056 µM | – | – | – | 2.16 | – |
| CC(=O)N1CCC[C@]12CC=CCCCC1(CCCC=CCCCCCC[C@@](C)(C(=O)NC(Cc3cncn3C)C(=O)N[C@@H](Cc3csc4ccccc34)C(=O)N[C@@H](CCC(N)=O)C(N)=O)NC(=O)[C@H](CC(N)=O)NC(=O)[C@H](Cc3ccccc3)NC(=O)[C@H](C)NC(=O)[C@H](C)NC(=O)[C@H](CCC(=O)O)NC(=O)[C@H](CC(=O)O)NC1=O)NC(=O)[C@H](C)NC(=O)[C@H](CC(=O)O)NC2=O (stereo partly drawn) [I-438, Ac-PL3-Asp-Ala-B5-Asp-Glu-Ala-Ala-Phe-Asn-S8-3meH-BztA-Gln-NH2] | – | 5 µM | – | – | – | 1.39 | 46 µM (≈ 84.2 µg/mL) |
| CC(=O)N1CCC[C@]12CC=CCCCC1(CCCC=CCCCCCC[C@@](C)(C(=O)N[C@@H](Cc3ccccc3[N+](=O)[O-])C(=O)N[C@@H](Cc3csc4ccccc34)C(=O)N[C@@H](CCC(N)=O)C(N)=O)NC(=O)[C@H](CC(N)=O)NC(=O)[C@H](Cc3ccccc3)NC(=O)[C@H](C)NC(=O)[C@H](C)NC(=O)[C@H](CCC(=O)O)NC(=O)[C@H](CC(=O)O)NC1=O)NC(=O)[C@H](C)NC(=O)[C@H](CC(=O)O)NC2=O (stereo partly drawn) [I-441, Ac-PL3-Asp-Ala-B5-Asp-Glu-Ala-Ala-Phe-Asn-S8-2NO2F-BztA-Gln-NH2] | – | 0.133 µM | – | – | 38 µM (≈ 71.1 µg/mL) | 2 | – |
